# “Also recorded” adds a separate entry of the source. Bridge positions count the residues as written; N and C are the ends.
# Assays:
# [1] = tested on: female Sprague-Dawley rats; test: Natriuretic and diuretic bioassay: urinary Na+ excretion after i.v. bolus in anesthetized rats; assay type: in vivo, rat; conditions: for natriuretic activity, comparison in words (FIG. 12): 15 to 1350 pmoles i.v. bolus, change of Na+ excretion per 20 min, at least four rats per dose
# Procedure: Diuretic and natriuretic activities of the ANFs are determined by the method of Garcia et al., (1982) Experientia 38, 1071-1073 and of Thibault et al., (1983) Hypertension 5, (Suppl. I), 75-80, both cited above, in female Sprague-Dawley rats (180-200 g) anesthetized with pentobarbital (60 mg/kg i.p.) equipped with a bladder catheter and an intrajugular vein catheter. The animals receive an infusion of 5% dextrose (3 ml/hr) for 45 minutes before the assay and during the evaluation period. Urine is collected in pre-weighed vials for 20 minute intervals. Following a basal collection period the ANFs to be assayed are injected as a bolus of 1 ml in Krebs solution pH 7.4 via the intrajugular vein catheter, urine is collected for a 20 minute period, and sodium concentrations are determined by flame photometry. Results are expressed as μEq of Na^+ for the collection period of 20 minutes from which the sodium excretion of the control period has been subtracted (ΔμEq Na^+ /20 min), and specific activity is defined as ΔμEq Na^+ /20 min/mg of protein. Protein is measured by the Bradford assay, see Spector, T. (1978) Anal. Biochem. 86, 142-146, with bovine albumin as a standard except for substantially pure ANFs where the amount of peptide is estimated from the amino acid sequencer.
# Generally, in the purification procedures described above, unless otherwise specified all procedures are carried out at 4° C. At the end of each chromatographic step the material is lyophilized and then stored at -20° C. until used. For small volume (<6 ml) lyophilization is carried out in polystyrene tubes (1.5×7 cm) in a Savant Speed Vac concentrator. Larger volumes in the first steps are lyophilized in glass flasks. For subsequent steps, samples are dissolved in 1 to 3 ml of 0.01M ammonium acetate, pH 5.0, and aliquots are taken for the biological assay (Garcia et al., (1982) Experientia 38, 1071-1073, cited above) which are done in duplicate.
# Generally, in the purification procedures discussed above, unless otherwise specified all procedures were carried out at 4° C. At the end of each chromatographic step the material was lyophilized and then stored at -20° C. until used. For small volume (<6 ml) lyophilization was carried out in polystyrene tubes (1.5×7 cm) in a Savant Speed Vac concentrator. Larger volumes in the first steps were lyophilized in glass flasks. For subsequent steps, samples were dissolved in 1 to 3 ml of 0.01M ammonium acetate, pH 5.0. Aliquots were taken for the biological assay (Garcia et al. (1982) Experientia 38, 1071-1073) which were done in duplicate. Proteins were measured by the Bradford assay (Spector, T. (1978) Anal. Biochem. 86, 142-146) with bovine albumin as a standard except in the last step where the amount of peptides was estimated from the amino acid sequencer.
# The natriuretic activities of native ANF(2-33), ANF(3-33) and synthetic ANF(8-33) acid or amide forms were determined by a biological assay (Garcia, R., Cantin, M., Thibault, G., Ong, H. and Genest, J. (1982) Experientia 38: 1071-1073; Thibault, G., Garcia, R., Cantin, M., and Genest, J. (1983) Hypertension 5 (Suppl. I): 75-83), both references cited above. Female Sprague-Dawley rats (180-200 g) were used as bioassay animals. They were anesthetized with pentobarbital (60 mg/kg i.p.) and a bladder catheter and an intrajugular vein catheter were installed. The animals received a 5% (W/V) dextrose infusion (2.1 ml/hr) 30 minutes before the assay and during the evaluation period. Urine was collected in preweighed vials for 20-minute intervals. After a basal collection period, the ANF peptides (native ANF(2-33) or (3-33) or synthetic (8-33) acid or amide forms; 15 to 1350 pmoles) were injected in a bolus injection in 1 ml of Krebs solution, pH 7.4. Each dose was injected in at least four rats. The sodium concentration was measured by a flame photometer. The results are expressed in terms of change of Na^+ excretion per 20 min±SEM.
# [2] = tested on: rabbit renal arteries (helical vascular strips); test: Vasorelaxant activity in vitro on norepinephrine-contracted rabbit renal artery strips; assay type: cell-based; conditions: 0.25 μg peptide added to the bath 5 min before the cumulative NE curve; p<0.01
# Procedure: The vasorelaxant activities of the ANFs of this invention are determined in vitro by means of a procedure involving the use of mammalian vascular strips. Briefly, healthy rabbits are anesthetized with sodium pentobarbital (30 mg/kg i.v.), their renal arteries are rapidly excised, fat and connective tissure are trimmed off, and the arterial issue is helically cut. The helical strips thus obtained are mounted between a fixed base and a force displacement transducer, immersed in a bath of continuously oxygenated Krebs solution at 37° C. and pH 7.4, and a tension of 500-700 mg is applied to the strip of arterial tissue. L-Norepinephrine bitartrate (NE) is added to the bath to obtain concentrations of NE ranging from 3.9×10^-6 to […], the contractions elicited by NE are registered on a polygraph, and a cumulative dose-response curve is established. Once a standard curve is reproducible it is repeated five minutes after having added 0.25 μg of the respective ANF to the bath. […]
# For each arterial strip a cumulative dose-response curve to NE (L-norepinephrine bitartrate, Sigma Chemicals) ranging from 3.9×10^-6 to 1.6×10^-2 mM was obtained. […] The contraction elicited for each dose of NE is expressed as a percent of the maximum response.
# Results are expressed as mean ±SEM. […]
# [3] = native peptide peaks after last step, CN μBondapak column, high molecular weight region, rat bioassay
Substance,"specific activity (natriuretic) [1, 3]","diuretic and natriuretic activity, general statements in words ([1]; rat bioassay)","natriuretic activity, comparison in words (FIG. 12) [1]",vasorelaxant activity: displacement of the norepinephrine dose-response curve (FIG. 13) [2],"specific activity of the material recovered (natriuretic) ([1]; after CN μBondapak reverse phase HPLC, partial inactivation of the peptide)","specific activity (natriuretic) ([1]; material at the Mono S column step, fractions 40 to 44 minutes, low molecular weight region)"
"H-Leu-Ala-Gly-Pro-Arg-Ser-Leu-Arg-Arg-Ser-Ser-Cys-Phe-Gly-Gly-Arg-Ile-Asp-Arg-Ile-Gly-Ala-Gln-Ser-Gly-Leu-Gly-Cys-Asn-Ser-Phe-Arg-Tyr-OH (H-LAGPRSLRRSSCFGGRIDRIGAQSGLGCNSFRY-OH; disulfide 12-28; ends not checked) [ANF(1-33), native rat atrial natriuretic factor of 33 amino acid residues, disulfide bridge Cys12-Cys28]","297,000 μEq of Na^+ excreted/20 min/mg",biologically active,,,,
"H-Arg-Arg-Ser-Ser-Cys-Phe-Gly-Gly-Arg-Ile-Asp-Arg-Ile-Gly-Ala-Gln-Ser-Gly-Leu-Gly-Cys-Asn-Ser-Phe-Arg-Tyr-OH (H-RRSSCFGGRIDRIGAQSGLGCNSFRY-OH; disulfide 5-21; ends not checked) [ANF(8-33), native rat atrial natriuretic factor of 26 amino acid residues]","450,000 μEq of Na^+ excreted/20 min/mg",more active than ANF(3-33) or ANF(1-33),,,,
"H-Ala-Gly-Pro-Arg-Ser-Leu-Arg-Arg-Ser-Ser-Cys-Phe-Gly-Gly-Arg-Ile-Asp-Arg-Ile-Gly-Ala-Gln-Ser-Gly-Leu-Gly-Cys-Asn-Ser-Phe-Arg-Tyr-OH (H-AGPRSLRRSSCFGGRIDRIGAQSGLGCNSFRY-OH; disulfide 11-27; ends not checked) [ANF(2-33), native rat atrial natriuretic factor of 32 amino acid residues]",,,slightly higher than that of the above compounds; also recorded: slightly higher than that of the other forms,,,
"H-Gly-Pro-Arg-Ser-Leu-Arg-Arg-Ser-Ser-Cys-Phe-Gly-Gly-Arg-Ile-Asp-Arg-Ile-Gly-Ala-Gln-Ser-Gly-Leu-Gly-Cys-Asn-Ser-Phe-Arg-Tyr-OH (H-GPRSLRRSSCFGGRIDRIGAQSGLGCNSFRY-OH; disulfide 10-26; ends not checked) [ANF(3-33), native rat atrial natriuretic factor of 31 amino acid residues]",,biologically active,comparable natriuretic activities,displacing the response to norepinephrine (NE) to the right,"84,000 μEq Na^+ excreted/20 min/mg","131,000 μEq of Na^+ excreted/20 min/mg"

# Source: patent US4607023A, “Natriuretic” (L'Institut de Recherches Cliniques de Montreal, priority 1983, dated 1986)
